From publication PMC6792352, “Limited Chemical Structural Diversity Found to Modulate Thyroid Hormone Receptor in the Tox21 Chemical Library” (Environmental Health Perspectives, 2019)
Counter-ions that a name gives are not always drawn.

Assay: in vitro
Settings: rat, gh3-tre-luc cells

SMILES | CC50 at 24 h (AC50 (uM) modified / 1000) | further results
O=CNNC=O [1,2-Diformylhydrazine] | > 90 µM | 
O=C[C@H](O)[C@@H](O)[C@H](O[C@H]1O[C@H](CO)[C@@H](O[C@H]2O[C@H](CO)[C@@H](O)[C@H](O)[C@H]2O)[C@H](O)[C@H]1O)[C@H](O)CO [Maltotriose] | > 50 µM | 
ClC(Cl)(Cl)Cl [Carbon tetrachloride] | > 90 µM | 
Cc1ccc2cc3c(ccc4ccccc43)c3c2c1CC3 [3-Methylcholanthrene] |  | CC50 at 24 h (AC50 (uM) modified / 1000, Tox21_110001=Tox21_202592, viability, 1 nM T3 present, 24 h): > 50 µM
CCOC(=O)NNc1ccc(N(CC)CC(C)O)nn1 (centres unmarked) [Cadralazine] | > 50 µM | 
O=C1NC2NC(=O)NC2N1 (centres unmarked) [Glycoluril] | > 90 µM | 
CN[C@@H]1[C@@H](O[C@H]2O[C@H](CO)[C@@H](N)[C@H](O)[C@H]2O)O[C@H]2C[C@@H](N)[C@@H](O[C@H]3[C@H](O)[C@@H](O)[C@H](N)C[C@@H]3N)O[C@@H]2[C@@H]1O [Apramycin] | > 20 µM | 
Nc1cnn([C@@H]2O[C@H](CO)[C@@H](O)[C@H]2O)c(=O)n1 [6-Azacytidine] | > 90 µM | 
CC(C)(C)c1cc(Cc2cc(C(C)(C)C)c(O)c(C(C)(C)C)c2)cc(C(C)(C)C)c1O [4,4'-Methylenebis(2,6-di-t-butylphenol)] | > 90 µM | 
COc1ccc(NS(=O)(=O)c2ccc(N)cc2)nn1 [Sulfamethoxypyridazine] | > 20 µM | 
CC(C)(O)c1ccc(C(C)(C)O)cc1 [1,4-Bis(2-hydroxy-2-propyl)benzene] | > 90 µM | 
N#Cc1ccc(N(CC(N)=O)CC(F)(F)F)cc1C(F)(F)F [GSK232420A] |  | CC50 at 24 h (AC50 (uM) modified / 1000, Tox21_110001=Tox21_300220, viability, 1 nM T3 present, 24 h): > 90 µM
CCCCCCCCCCCC[N+](C)(C)Cc1ccccc1 [Benzyldimethyldodecylammonium chloride] | 10.6 µM | 
C[C@@H](O)[C@H]1C(=O)N2C(C(=O)O)=C(S[C@@H]3CN[C@H](CNS(N)(=O)=O)C3)[C@H](C)[C@H]12 [Doripenem] | > 50 µM | 
Oc1ccc(Cl)c2c1CCC2 [Chlorindanol] | > 50 µM | 
C[C@@H](O)[C@H](N)C(=O)O [L-Threonine] | > 50 µM | 
O=C1CCCCCCCCCCC(=O)OCCO1 [1,4-Dioxacyclohexadecane-5,16-dione] | > 90 µM | 
CC(O)C#CC(C)O (centres unmarked) [Hex-3-yne-2,5-diol] | 50.2 µM | 
OC(c1ccc(Cl)cc1)(c1ccc(Cl)cc1)C(Cl)(Cl)Cl [Dicofol] | 79.5 µM | 
O=c1ccc2cc(O[C@@H]3O[C@H](CO)[C@@H](O)[C@H](O)[C@H]3O)c(O)cc2o1 [Esculin] | > 20 µM | 

SMILES | CC50 at 24 h (AC50 (uM) modified / 1000) | further results
CN(C)C(=O)NC1(c2ccccc2)CCN(CCC[C@]2(c3ccc(Cl)c(Cl)c3)CCCN(C(=O)c3ccccc3)C2)CC1 [SSR146977] | 8.07 µM | 
O=C(O)c1ccc(NC2OC[C@@H](O)[C@H](O)[C@H]2O)cc1 (some centres unmarked) [Benaxibine] | > 50 µM | 
COc1cc(S(=O)(=O)O)c(C)cc1N=Nc1c(O)ccc2cc(S(=O)(=O)O)ccc12 [Allura Red C.I.16035] | 37.7 µM | 
CC1=C(CC(=O)O)c2cc(F)ccc2/C1=C\c1ccc(S(C)(=O)=O)cc1 [Sulindac sulfone] | > 50 µM | 
C=C(C)C(=O)OC1C[C@H]2CC[C@]1(C)C2(C)C (some centres unmarked) [Isobornyl methacrylate] | > 90 µM | 
Cc1ccc2ncccc2c1 [6-Methylquinoline] | > 90 µM | 
N#CCC(=O)NN [Cyacetacide] | > 50 µM | 
NCc1cccc(CN)c1 [1,3-Benzenedimethanamine] | > 90 µM | 
CCCCCCCCCCCCCO [1-Tridecanol] | > 90 µM | 
CC(Cl)=CCCl [1,3-Dichloro-2-butene] | > 90 µM | 
CC1(C)[C@H](C=C(Cl)Cl)[C@H]1C(=O)O[C@H](C#N)c1cccc(Oc2ccccc2)c1 [Cypermethrin] | > 50 µM | 
Cc1ccc(Cl)c(Nc2ccccc2C(=O)O)c1Cl [Meclofenamate sodium] | > 50 µM | 
COP(=S)(Oc1cc(Cl)c(Br)cc1Cl)c1ccccc1 (centres unmarked) [Leptophos] |  | CC50 at 24 h (AC50 (uM) modified / 1000, Tox21_110001=Tox21_301903, viability, 1 nM T3 present, 24 h): 72.3 µM
CC(CO)OC(C)CO (centres unmarked) [Dipropylene glycol] | > 90 µM | 
CCCCCCCCCCCCCC [Tetradecane] | > 90 µM | 
CC(C)(C)c1ccc(CN2CCN(C(c3ccccc3)c3ccc(Cl)cc3)CC2)cc1 (centres unmarked) [Buclizine dihydrochloride] | 32.6 µM | 
ClC1=C(Cl)C2(Cl)C3C(Cl)C=CC3C1(Cl)C2(Cl)Cl (centres unmarked) [Heptachlor] |  | CC50 at 24 h (AC50 (uM) modified / 1000, Tox21_110001=Tox21_201911, viability, 1 nM T3 present, 24 h): 37.8 µM; CC50 at 24 h (AC50 (uM) modified / 1000, Tox21_110001=Tox21_300534, viability, 1 nM T3 present, 24 h): 42.6 µM
N#CCc1cccc(C(F)(F)F)c1 [[3-(Trifluoromethyl)phenyl]acetonitrile] | > 90 µM | 
OC(O)C(Cl)(Cl)Cl [Chloral hydrate] |  | CC50 at 24 h (AC50 (uM) modified / 1000, Tox21_110001=Tox21_111614, viability, 1 nM T3 present, 24 h): > 50 µM; CC50 at 24 h (AC50 (uM) modified / 1000, Tox21_110001=Tox21_200110, viability, 1 nM T3 present, 24 h): > 90 µM
